Structures can show the parent of a compound that is named as a salt.
Target: T1, LTD4 evoked ileal contractions (Cavia porcellus, UniProt Q2NNR5)
T1 construct: A section of terminal ileum was removed, the lumen cleaned, and the tissue divided into 2.5 cm. segments; from tissue; host or cells: terminal ileum of male Hartley guinea pigs
T1 sequence (Q2NNR5 1-340): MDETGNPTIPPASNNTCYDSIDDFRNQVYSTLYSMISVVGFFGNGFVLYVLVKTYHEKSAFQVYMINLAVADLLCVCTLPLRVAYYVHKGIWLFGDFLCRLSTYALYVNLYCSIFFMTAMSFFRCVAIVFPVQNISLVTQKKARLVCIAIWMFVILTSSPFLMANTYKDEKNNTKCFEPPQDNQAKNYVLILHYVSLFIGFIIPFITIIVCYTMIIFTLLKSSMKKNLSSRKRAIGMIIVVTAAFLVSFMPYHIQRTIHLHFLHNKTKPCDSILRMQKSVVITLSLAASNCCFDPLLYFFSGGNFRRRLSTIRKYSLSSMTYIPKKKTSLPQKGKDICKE
Test: Antagonism of LTD4-evoked contraction of isolated guinea pig ileum (single concentration)
Type: cell-based
Details: pure LTD4, 5 minute exposure, read-out: Percent Inhibition of LTD4 evoked ileal contractions; for inhibition at 10 µM: 1 × 10^-5 M; for inhibition at 3 µM: 3 × 10^-6 M; for inhibition at 1 µM: 1 × 10^-6 M
Method: Male, Hartley guinea pigs weighing 200-450 grams were killed by decapitation. A section of terminal ileum was removed, the lumen cleaned, and the tissue divided into 2.5 cm. segments. The ilea were mounted in 10 ml. tissue baths containing Krebs-bicarbonate solution of the following composition in mmoles/liter: KCl, 4.6; CaCl2.2H2 O, 1.2; KH2 PO4, 1.2; MgSO4.7H2 O, 1.2; NaCl, 118.2; NaHCO3, 24.8 and dextrose, 10.0. The bath fluid was maintained at 37° C. and aerated with 95 percent oxygen and 5 percent CO2. In addition, the buffer contained 1×10^-6 M atropine to reduce ileal spontaneous activity. In studies with crude SRS-A, 1×10^-6M pyrilamine was used to mitigate the actions of histamine present along with the biologically active leukotrienes. Isometric measurements were made with a Grass FTO3C force-displacement transducer and recorded on a Grass polygraph as change in grams of force. A passive force of 0.5 g. was applied to the tissues. After an appropriate equilibration period, single submaximal control responses to either SRS-A or pure LTD4 were obtained. Following a 5 minute exposure of the ileum to an experimental drug, the control concentration of SRS-A or LTD4 was added to the tissue bath. The response of the ileum to SRS-A or LTD4 in the presence of the drug was compared to the response in the absence of the drug.
*Compounds marked with an asterisk were tested using crude SRSA as the
ileumcontracting agent; all other compounds were tested using pure

inhibition at 10 µM [%] | inhibition at 3 µM [%] | inhibition at 1 µM [%] | Structure (SMILES)
23 |  |  | COC(=O)C(C)(C)CCCCOc1ccc(C(C)=O)c(O)c1 [Example 46, Methyl 6-(4-acetyl-3-hydroxyphenoxy)-2,2-dimethylhexanoate]
60 | 30 |  | CCCc1c(OCCCCCCN(C)C)ccc(C(C)=O)c1O [Example 38, N,N-Dimethyl-[6-(4-acetyl-3-hydroxy-2-propylphenoxy)hexyl]amine hydrochloride]
 | 29 |  | C=CCc1c(OCCCCCC(=O)O)ccc(C(C)=O)c1O [Example 26, 6-(4-Acetyl-3-hydroxy-2-allylphenoxy)-hexanoic acid]
92 | 79 |  | CCCc1c(OCCCCCCCCCCC(=O)O)ccc(C(C)=O)c1O [Example 33, 11-(4-Acetyl-3-hydroxy-2-propylphenoxy)undecanoic acid]
94 |  | 62 | CCCc1c(OCCCCCCCC(=O)O)ccc(C(C)=O)c1O [Example 30, 8-(4-Acetyl-3-hydroxy-2-propylphenoxy)octanoic acid]
 | 10 |  | CC(=O)c1ccc(OC(C)CCCCC(=O)O)cc1O (stereo not shown) [Example 41, 6-(4-Acetyl-3-hydroxyphenoxy)heptanoic acid]
 | 34 |  | CC(=O)c1ccc(OC(CCCCC(=O)O)c2ccc(-c3ccccc3)cc2)cc1O (stereo not shown) [Example 18, 6-(4-Acetyl-3-hydroxyphenoxy)-6-(4-biphenyl)hexanoic acid]
 |  | 89 | CCCc1c(OCCCCC(C)(C)c2nnn[nH]2)ccc(C(C)=O)c1O [Example 39, 5-[5-(4-Acetyl-3-hydroxy-2-propylphenoxy)-1,1-dimethylpentyl]-tetrazole]
 | 56 | 40 | CCCc1c(OCCCCC(=O)OCC)ccc(C(C)=O)c1O [Example 54, Ethyl 5-(4-acetyl-3-hydroxy-2-propylphenoxy)pentanoate]
 | 42 | 26 | CCCc1c(OCCCCCCN)ccc(C(C)=O)c1O [Example 36, 6-(4-Acetyl-3-hydroxy-2-propylphenoxy)hexylamine hydrochloride]
 |  | 66 | CCCc1c(OCCCCCc2nnnn2CC(=O)O)ccc(C(C)=O)c1O [Example 50, 5-(1H)-[5-(4-Acetyl-3-hydroxy-2-propylphenoxy)pentyl]-1-tetrazolylacetic acid]
100 |  | 95 | CCCc1c(OCCCCCCSc2nn[nH]n2)ccc(C(C)=O)c1O [Example 71, 5-[6-(4-Acetyl-3-hydroxy-2-propylphenoxy)hexanethio]-tetrazole]
94 | 73 |  | CCCc1c(OCCCCC(C)(C)C(=O)O)ccc(C(C)=O)c1O [Example 45, 6-(4-Acetyl-3-hydroxy-2-propylphenoxy)-2,2-dimethylhexanoic acid]
74 | 46 |  | CCCc1c(OCCCCCCO)ccc(C(C)=O)c1O [Example 42, 6-(4-Acetyl-3-hydroxy-2-propylphenoxy)-1-hexanol]
 | 55 |  | CCCc1c(OCCCCC(C)(C)C(=O)OC)ccc(C(C)=O)c1O [Example 44, Methyl 6-(4-acetyl-3-hydroxy-2-propylphenoxy)-2,2-dimethylhexanoate]
 |  | 38 | CCCc1c(OCCCCCc2nnnn2C)ccc(C(C)=O)c1O [Example 52, 1-Methyl-5-(1H)-[5-(4-acetyl-3-hydroxy-2-propylphenoxy)pentyl]-tetrazole]
22 |  |  | CC(=O)c1ccc(OCCCCC(C)(C)C(=O)O)cc1O [Example 47, 6-(4-Acetyl-3-hydroxyphenoxy)-2,2-dimethylhexanoic acid]
 | 59 | 28 | CCCc1c(OCCCCC(N)=O)ccc(C(C)=O)c1O [Example 55, 5-(4-Acetyl-3-hydroxy-2-propylphenoxy)pentanoic acid amide]

inhibition at 10 µM [%] | inhibition at 3 µM [%] | inhibition at 1 µM [%] | Structure (SMILES)
86 | 70 |  | CC(=O)c1ccc(OC(CCCCC(=O)O)c2ccc(Cc3ccccc3)cc2)cc1O (stereo not shown) [Example 16, 6-(4-Acetyl-3-hydroxyphenoxy)-6-(4-benzylphenyl)hexanoic acid]
64 | 35 |  | CCCc1c(OC(CCCCC(=O)O)c2ccccc2)ccc(C(C)=O)c1O (stereo not shown) [Example 19, 6-(4-Acetyl-3-hydroxy-2-propylphenoxy)-6-phenylhexanoic acid]
37 |  |  | CCCc1c(OC(CCCCC(=O)O)c2ccc(Cc3ccccc3)cc2)ccc(C(C)=O)c1O (stereo not shown) [Example 15, 6-(4-Acetyl-3-hydroxy-2-propylphenoxy)-6-(4-benzylphenyl)hexanoic acid]
 | 100 | 89 | CCCc1c(OCCCCc2nnn[nH]2)ccc(C(C)=O)c1O [Example 8, 5-[4-(4-Acetyl-3-hydroxy-2-propylphenoxy)butyl]-tetrazole]
 | 47 | 22 | CCCc1c(OCCCCCCCCCCCCc2nnn[nH]2)ccc(C(C)=O)c1O [Example 14, 5-[12-(4-Acetyl-3-hydroxy-2-propylphenoxy)dodecyl]-tetrazole]
34 |  |  | CCCc1c(OC(CCC)CCCCC(=O)O)ccc(C(C)=O)c1O (stereo not shown) [Example 48, 6-(4-Acetyl-3-hydroxy-2-propylphenoxy)nonanoic acid]
 | 56 | 34 | CCCc1c(OCCCCc2nnn[nH]2)ccc(C(=O)c2ccccc2)c1O [Example 43, 5-[4-(4-Benzoyl-3-hydroxy-2-propylphenoxy)butyl]-tetrazole]
 | 55 | 28 | CCCc1c(OCCCSC(=N)N)ccc(C(C)=O)c1O [Example 60, S-[3-(4-Acetyl-3-hydroxy-2-propylphenoxy)propyl]-isothiuronium hydrobromide]
78 | 32 |  | CCCc1c(OCCCCCCN2CCN(C)CC2)ccc(C(C)=O)c1O [Example 37, N-Methyl-N'-[6-(4-acetyl-3-hydroxy-2-propylphenoxy)hexyl]piperazine dihydrochloride]
18 |  |  | CCCC(CCCCC(=O)O)Oc1ccc(C(C)=O)c(O)c1 (stereo not shown) [Example 49, 6-(4-Acetyl-3-hydroxyphenoxy)nonanoic acid]
 |  | 69 | CCCc1c(OCCCCCc2nnn(CC(=O)O)n2)ccc(C(C)=O)c1O [Example 51, 5-(2H)-[5-(4-acetyl-3-hydroxy-2-propylphenoxy)pentyl]-2-tetrazolylacetic acid]
 |  | 15 | CCCc1c(OCCCc2nnn[nH]2)ccc(C(C)=O)c1O [Example 23, 5-[3-(4-Acetyl-3-hydroxy-2-propylphenoxy)propyl]-tetrazole]
80 | 47 |  | CCCc1c(OCCCCCCN2CCOCC2)ccc(C(C)=O)c1O [Example 35, N-[6-(4-Acetyl-3-hydroxy-2-propylphenoxy)hexyl]morpholine hydrochloride]
 | 70 | 28 | CCCc1c(OCCCCC(=O)NO)ccc(C(C)=O)c1O [Example 61, 5-(4-Acetyl-3-hydroxy-2-propylphenoxy)pentanehydroxamic acid]
 | 42 | 17 | CCCc1c(OCCCCC(=O)N(C)C)ccc(C(C)=O)c1O [Example 56, N,N-dimethyl-5-(4-acetyl-3-hydroxy-2-propylphenoxy)pentanoic acid amide]
 |  | 100 | CCCc1c(OCCCCCCCSc2nn[nH]n2)ccc(C(C)=O)c1O [Example 72, 5-[7-(4-Acetyl-3-hydroxy-2-propylphenoxy)heptanethio]-tetrazole]
92 | 85 | 46 | CCCc1c(OCCCCCCCCCC(=O)O)ccc(C(C)=O)c1O [Example 32, 10-(4-Acetyl-3-hydroxy-2-propylphenoxy)decanoic acid]
84 |  | 43 | CCCc1c(OCCCCCCC(=O)O)ccc(C(C)=O)c1O [Example 29, 7-(4-Acetyl-3-hydroxy-2-propylphenoxy)heptanoic acid]
